Laboratory results from ChEMBL document CHEMBL3217547, “3-Substituted coumarins as dual inhibitors of AChE and MAO for the treatment of Alzheimer's disease” (Medchemcomm, 2012).
Calls of active or inactive are those of the source. No cut-off for these calls is given here.

Columns and labels:
[1] = biological target: T1, Amine oxidase [flavin-containing] A (Homo sapiens, UniProt P21397); assay: Inhibition of recombinant human MAO-A assessed as production of hydrogen peroxide from p-tyramine up to 100 uM after 15 mins by Amplex Red assay; settings: 0.25 h
T1 sequence (P21397 whole entry): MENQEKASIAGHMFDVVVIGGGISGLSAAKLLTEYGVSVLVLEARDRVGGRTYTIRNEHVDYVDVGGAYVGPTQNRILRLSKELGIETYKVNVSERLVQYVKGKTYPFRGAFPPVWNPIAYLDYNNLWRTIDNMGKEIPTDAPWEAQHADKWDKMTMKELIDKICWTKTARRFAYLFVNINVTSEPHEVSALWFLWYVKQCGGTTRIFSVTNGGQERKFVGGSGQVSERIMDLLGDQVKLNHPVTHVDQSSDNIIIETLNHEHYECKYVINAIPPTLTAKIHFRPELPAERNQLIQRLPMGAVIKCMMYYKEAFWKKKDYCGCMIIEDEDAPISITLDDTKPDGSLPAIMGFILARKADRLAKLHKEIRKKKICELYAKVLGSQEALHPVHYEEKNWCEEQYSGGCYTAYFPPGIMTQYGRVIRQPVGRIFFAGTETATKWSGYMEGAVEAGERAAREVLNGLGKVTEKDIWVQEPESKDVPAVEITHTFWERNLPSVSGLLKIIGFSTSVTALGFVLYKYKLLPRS

Acetylcholinesterase [2] = biological target: T2, Acetylcholinesterase (Homo sapiens, UniProt P22303); assay: Inhibition of recombinant human AChE expressed in HEK293 cells using acetylthiocholine iodide as substrate at 100 uM preincubated for 5 mins before substrate addition measured after 10 mins by Ellman's method
[3] = biological target: T3, Amine oxidase [flavin-containing] B (Homo sapiens, UniProt P27338); assay: Inhibition of recombinant human MAO-B assessed as production of hydrogen peroxide from p-tyramine up to 100 uM after 15 mins by Amplex Red assay; settings: 0.25 h
T3 sequence (P27338 whole entry): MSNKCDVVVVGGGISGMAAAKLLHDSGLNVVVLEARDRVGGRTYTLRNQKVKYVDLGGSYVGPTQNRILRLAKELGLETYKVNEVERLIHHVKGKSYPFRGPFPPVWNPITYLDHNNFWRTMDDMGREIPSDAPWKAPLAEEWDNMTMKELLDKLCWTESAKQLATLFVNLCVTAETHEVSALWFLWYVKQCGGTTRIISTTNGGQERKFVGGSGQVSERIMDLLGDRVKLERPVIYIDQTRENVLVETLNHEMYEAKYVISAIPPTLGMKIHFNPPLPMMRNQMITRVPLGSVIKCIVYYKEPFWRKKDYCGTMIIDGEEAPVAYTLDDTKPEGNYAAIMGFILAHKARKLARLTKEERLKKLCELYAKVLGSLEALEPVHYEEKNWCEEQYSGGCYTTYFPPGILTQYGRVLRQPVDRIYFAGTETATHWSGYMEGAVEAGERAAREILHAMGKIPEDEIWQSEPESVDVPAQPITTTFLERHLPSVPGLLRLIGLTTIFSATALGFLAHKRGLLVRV

[4] = biological target: T3, Amine oxidase [flavin-containing] B
Description: Inhibition of recombinant human MAO-B assessed as production of hydrogen peroxide from p-tyramine after 15 mins by Amplex Red assay

Acetylcholinesterase [5] = biological target: T2, Acetylcholinesterase; assay: Inhibition of recombinant human AChE expressed in HEK293 cells using acetylthiocholine iodide as substrate preincubated for 5 mins before substrate addition measured after 10 mins by Ellman's method
[6] = biological target: T1, Amine oxidase [flavin-containing] A; assay: Inhibition of recombinant human MAO-A assessed as production of hydrogen peroxide from p-tyramine after 15 mins by Amplex Red assay
[7] = biological target: T3, Amine oxidase [flavin-containing] B; assay: Inhibition of recombinant human MAO-B assessed as production of hydrogen peroxide from p-tyramine at 100 uM after 15 mins by Amplex Red assay; settings: 0.25 h

T2 sequence (P22303 whole entry): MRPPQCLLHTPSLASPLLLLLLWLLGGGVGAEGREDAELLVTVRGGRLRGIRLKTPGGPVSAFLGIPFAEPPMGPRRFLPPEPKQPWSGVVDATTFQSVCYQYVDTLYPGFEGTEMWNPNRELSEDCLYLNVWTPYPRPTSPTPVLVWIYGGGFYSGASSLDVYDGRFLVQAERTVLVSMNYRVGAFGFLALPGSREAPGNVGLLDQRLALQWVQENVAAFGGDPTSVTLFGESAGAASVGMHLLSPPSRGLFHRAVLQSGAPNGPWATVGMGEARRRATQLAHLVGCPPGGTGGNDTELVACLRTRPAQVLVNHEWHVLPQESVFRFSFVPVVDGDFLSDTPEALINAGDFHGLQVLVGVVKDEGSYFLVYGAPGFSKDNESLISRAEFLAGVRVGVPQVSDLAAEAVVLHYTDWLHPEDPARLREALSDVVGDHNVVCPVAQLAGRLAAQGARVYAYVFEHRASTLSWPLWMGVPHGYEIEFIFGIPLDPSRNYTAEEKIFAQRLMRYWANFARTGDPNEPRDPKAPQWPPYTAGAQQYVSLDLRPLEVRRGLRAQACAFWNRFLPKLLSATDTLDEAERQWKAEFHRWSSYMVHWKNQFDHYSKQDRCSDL

SMILES	inhibition (INH) [1]	inhibition (Acetylcholinesterase [2])	inhibition (INH) [3]	IC50 [4]	IC50 (Acetylcholinesterase [5])	IC50 [6]	inhibition at 100 µM [7]
Cc1ccc2oc(=O)c(-c3ccccc3)cc2c1	Not Active	inactive					
O=C(CCl)Nc1cc2ccccc2oc1=O	Not Active	inactive	Not Active				
O=C(Nc1cc2ccccc2oc1=O)c1ccccc1	Not Active	inactive		0.76 µM			
O=C(Nc1cc2ccccc2oc1=O)C1CCCCC1	Not Active	inactive		50 µM			
O=C(CBr)Nc1cc2ccccc2oc1=O	Not Active	inactive	Not Active				
O=C(Nc1cc2ccccc2oc1=O)c1ccc([N+](=O)[O-])cc1	Not Active		Not Active		12.9 µM		
COc1ccc(C(=O)Nc2cc3ccccc3oc2=O)cc1	Not Active			30.5 µM	69.5 µM		
COc1cc(C(=O)Nc2cc3ccccc3oc2=O)cc(OC)c1OC	Not Active	inactive		72.6 µM			
Cc1ccc(C(=O)Nc2cc3ccccc3oc2=O)cc1	Not Active			7.96 µM	18.4 µM		
O=C(Nc1cc2ccccc2oc1=O)c1ccc(Cl)cc1	Not Active			1.95 µM	18.7 µM		
COc1ccc(C(=O)Nc2cc3ccccc3oc2=O)cc1OC	Not Active	inactive		58.4 µM			
O=C(Nc1cc2ccccc2oc1=O)c1ccc(Cl)c(Cl)c1	Not Active			5.95 µM	15 µM		
Cc1ccc(-c2cc3cc(C)ccc3oc2=O)cc1	Not Active	inactive					
Cc1ccc(C(=O)Nc2cc3cc(C)ccc3oc2=O)cc1				0.17 µM	41.4 µM	46 µM	
CC(=O)Nc1cc2ccccc2oc1=O		inactive				38.9 µM	40%
O=c1oc2ccccc2cc1-c1ccccc1	Not Active	inactive					
